Reference: patent US20250066363A1, “Bicyclic DGK Inhibitors” (Incyte Corporation, priority 2023, published 2025)

Columns and labels:
[1] = molecular target: DGKα (Homo sapiens (Human), UniProt P23743); experiment: In vitro DGKα inhibition assay (ADP-Glo); type: biochemical; conditions: first column of Table A
Protocol: (§1) The DGKα and DGKζ biochemical reactions were performed using His-tagged human recombinant enzymes (Signal Chem, DGKα, #D21-10BH; DGKζ, #D30-1OH)) and DLG (Dilauroyl-sn-glycerol) lipid substrate (Signal Chem, #D430-59). ADP-Glo assay was performed using ADP-Glo™ kinase Assay kit (Promega, #V9104). The reactions were carried out in assay buffer containing 40 mM Tris, pH 7.5, 0.1% CHAPS, 0.1% Prionex, 40 mM NaCl, 5 mM MgCl2, 1 mM CaCl2, and 1 mM DTT. DGKα reactions contained 0.1 nM DGKα, 50 μM ATP, and 20 μM DLG. And DGKζ reactions contained 0.4 nM DGKζ, 30 μM ATP, and 20 μM DLG.
(§2) For compound inhibition studies, 40 nL test compound in DMSO was added to wells of white polystyrene plates in 384-well (Greiner, #784075) or 1536-well format (Greiner, #782075). Compounds were added with top concentration of 2 mM with 11 point, 3-fold dilution series. Enzyme solution (contains 2× DGK enzyme concentration in 1× assay buffer) was added to the plate in 2 μL/well volume, followed by 2 μL/well of substrate solution (contains 2× concentration of ATP and DLG substrate in 1× assay buffer). Plates were then centrifuged for 1 min at 1200 RPM and sealed or lidded. For 4 μL reaction volume, test compounds were therefore diluted 100× to final top concentration of 20 μM. After 90 minute incubation, reactions were quenched by addition of 2 μL/well Promega ADP-Glo Reagent, followed by centrifugation and lidding. After 60 min incubation, 2 μL/well Promega Kinase Detection Reagent was added, plates centrifuged, and incubated for 30 min. Plates were then read using Luminescence method on BMG PHERAstar FSX plate reader. Percent inhibition was calculated and IC50s were determined using 4-parameter fit in Genedata Screener. Labcyte Echo acoustic dispenser was used for compound addition, and Formulatrix Tempest liquid handler was used for all reagent dispenses.

[2] = molecular target: DGKζ (Homo sapiens (Human), UniProt Q13574); experiment: In vitro DGKζ inhibition assay (ADP-Glo); type: biochemical; conditions: second column of Table A, head printed DGKα, presumably DGKζ; His-tagged human recombinant DGKζ 0.4 nM, 30 μM ATP, 20 μM DLG
Sequence of DGKζ (Q13574 whole entry): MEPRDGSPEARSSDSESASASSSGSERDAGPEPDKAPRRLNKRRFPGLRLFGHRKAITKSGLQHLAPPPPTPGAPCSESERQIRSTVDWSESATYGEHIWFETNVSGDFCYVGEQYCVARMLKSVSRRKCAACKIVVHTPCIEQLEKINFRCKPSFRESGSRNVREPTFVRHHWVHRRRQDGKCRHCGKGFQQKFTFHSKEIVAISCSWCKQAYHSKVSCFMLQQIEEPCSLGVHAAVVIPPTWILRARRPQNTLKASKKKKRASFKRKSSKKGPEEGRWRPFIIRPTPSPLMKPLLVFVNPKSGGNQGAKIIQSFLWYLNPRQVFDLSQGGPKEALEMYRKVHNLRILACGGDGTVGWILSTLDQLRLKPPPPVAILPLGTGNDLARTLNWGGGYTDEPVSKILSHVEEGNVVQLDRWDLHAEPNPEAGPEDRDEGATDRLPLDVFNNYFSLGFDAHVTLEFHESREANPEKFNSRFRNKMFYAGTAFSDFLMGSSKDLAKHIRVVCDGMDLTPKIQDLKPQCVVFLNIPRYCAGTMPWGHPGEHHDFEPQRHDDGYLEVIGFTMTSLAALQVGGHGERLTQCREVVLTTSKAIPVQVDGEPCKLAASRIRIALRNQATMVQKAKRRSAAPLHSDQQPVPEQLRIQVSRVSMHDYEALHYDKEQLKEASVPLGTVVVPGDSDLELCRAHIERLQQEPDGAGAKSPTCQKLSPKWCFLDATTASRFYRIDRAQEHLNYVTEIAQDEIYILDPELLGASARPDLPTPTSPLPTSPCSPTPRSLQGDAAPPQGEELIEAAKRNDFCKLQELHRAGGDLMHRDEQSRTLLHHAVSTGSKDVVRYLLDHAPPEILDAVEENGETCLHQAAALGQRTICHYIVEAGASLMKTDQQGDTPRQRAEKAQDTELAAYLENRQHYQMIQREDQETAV
Protocol: as §1, §2

[3] = His-tagged human recombinant DGKα 0.1 nM, 50 μM ATP, 20 μM DLG

Sequence of DGKα (P23743 whole entry): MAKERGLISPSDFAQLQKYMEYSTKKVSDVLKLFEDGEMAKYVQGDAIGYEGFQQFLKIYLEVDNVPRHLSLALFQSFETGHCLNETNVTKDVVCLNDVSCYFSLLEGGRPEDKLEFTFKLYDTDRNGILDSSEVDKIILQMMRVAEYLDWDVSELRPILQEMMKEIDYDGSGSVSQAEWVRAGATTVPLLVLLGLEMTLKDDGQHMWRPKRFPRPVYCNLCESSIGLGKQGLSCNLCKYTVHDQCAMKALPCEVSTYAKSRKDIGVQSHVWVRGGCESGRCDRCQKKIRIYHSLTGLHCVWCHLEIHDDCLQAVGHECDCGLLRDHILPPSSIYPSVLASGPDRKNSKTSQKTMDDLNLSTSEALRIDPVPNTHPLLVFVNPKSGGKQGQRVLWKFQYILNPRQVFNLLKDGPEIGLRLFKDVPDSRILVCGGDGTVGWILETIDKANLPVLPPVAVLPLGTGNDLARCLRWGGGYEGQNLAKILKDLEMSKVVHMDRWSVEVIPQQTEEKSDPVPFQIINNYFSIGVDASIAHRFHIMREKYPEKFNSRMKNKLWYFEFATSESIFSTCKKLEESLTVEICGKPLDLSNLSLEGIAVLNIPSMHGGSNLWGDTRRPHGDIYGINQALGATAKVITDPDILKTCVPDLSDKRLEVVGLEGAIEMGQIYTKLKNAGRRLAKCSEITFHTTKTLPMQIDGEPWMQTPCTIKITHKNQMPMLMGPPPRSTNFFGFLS

Row | Structure (SMILES) | IC50 [1, 3] [nM] | IC50 [2] [nM] | IC50 ([1]; cell prints a figure instead of a class symbol (possibly a misprint of +)) [nM]
1 | CC[C@@H]1CN(c2nc(=O)n(C)c3c2nc(C)n3C[C@@H]2CCCO2)[C@@H](C)CN1C(c1ccc(Cl)cc1)C1CC(F)(F)C1 (stereo partly drawn) [Example 37, 6-((2S,5R)-4-((4-Chlorophenyl)(3,3-difluorocyclobutyl)methyl)-5-ethyl-2-methylpiperazin-1-yl)-3,8-dimethyl-9-(((S)-tetrahydrofuran-2-yl)methyl)-3,9-dihydro-2H-purin-2-one] | ≤ 10 | ≤ 10 | 
2 | CC[C@@H]1CN(c2nc(=O)n(C)c3c2nc(C)n3C[C@@H]2CCCO2)[C@@H](C)CN1C(c1ccc(C(F)(F)F)cc1)C1CC(F)(F)C1 (stereo partly drawn) [Example 38, 6-((2S,5R)-4-((3,3-Difluorocyclobutyl)(4-(trifluoromethyl)phenyl)methyl)-5-ethyl-2-methylpiperazin-1-yl)-3,8-dimethyl-9-(((S)-tetrahydrofuran-2-yl)methyl)-3,9-dihydro-2H-purin-2-one] | ≤ 10 | ≤ 10 | 
3 | Cc1nc2c(N3C[C@@H](C)N(C(c4ccc(Cl)c(F)c4)C4CC(F)(F)C4)C[C@@H]3C)nc(=O)n(C)c2n1C[C@@H]1CCCO1 (stereo partly drawn) [Example 39, 6-((2S,5R)-4-((4-Chloro-3-fluorophenyl)(3,3-difluorocyclobutyl)methyl)-2,5-dimethylpiperazin-1-yl)-3,8-dimethyl-9-(((S)-tetrahydrofuran-2-yl)methyl)-3,9-dihydro-2H-purin-2-one] | ≤ 10 | ≤ 10 | 
4 | Cc1nc2c(N3C[C@@H](C)N(C(c4ccc(C(F)(F)F)cc4)C4CC(F)(F)C4)C[C@@H]3C)cc(=O)n(C)c2n1C[C@@H]1CCCO1 (stereo partly drawn) [Example 40, 7-((2S,5R)-4-((3,3-Difluorocyclobutyl)(4-(trifluoromethyl)phenyl)methyl)-2,5-dimethylpiperazin-1-yl)-2,4-dimethyl-3-(((S)-tetrahydrofuran-2-yl)methyl)-3,4-dihydro-5H-imidazo[4,5-b]pyridin-5-one] | ≤ 100 | ≤ 100 | 
5 | Cc1nc2c(N3C[C@@H](CO)N(C(c4ccc(C(F)(F)F)cc4)C4CC(F)(F)C4)C[C@@H]3C)nc(=O)n(C)c2n1C[C@@H]1CCCO1 (stereo partly drawn) [Example 41, 6-((2S,5S)-4-((3,3-Difluorocyclobutyl)(4-(trifluoromethyl)phenyl)methyl)-5-(hydroxymethyl)-2-methylpiperazin-1-yl)-3,8-dimethyl-9-(((S)-tetrahydrofuran-2-yl)methyl)-3,9-dihydro-2H-purin-2-one] |  | ≤ 10 | 1
6 | C[C@@H]1CN(c2nc(=O)n(C)c3c2nnn3C[C@H]2CCCO2)[C@@H](C)CN1C(c1ccc(C(F)(F)F)cc1)C1CC(F)(F)C1 (stereo partly drawn) [Example 43, 7-((2S,5R)-4-((3,3-Difluorocyclobutyl)(4-(trifluoromethyl)phenyl)methyl)-2,5-dimethylpiperazin-1-yl)-4-methyl-3-(((R)-tetrahydrofuran-2-yl)methyl)-3,4-dihydro-5H-[1,2,3]triazolo[4,5-d]pyrimidin-5-one] | ≤ 10 | ≤ 10 | 
7 | CC[C@@H]1CN(c2nc(=O)n(C)c3c2nnn3C[C@H]2CCCO2)[C@@H](C)CN1C(c1ccc(C(F)(F)F)cc1)C1CC(F)(F)C1 (stereo partly drawn) [Example 44, 7-((2S,5R)-4-((3,3-Difluorocyclobutyl)(4-(trifluoromethyl)phenyl)methyl)-5-ethyl-2-methylpiperazin-1-yl)-4-methyl-3-(((R)-tetrahydrofuran-2-yl)methyl)-3,4-dihydro-5H-[1,2,3]triazolo[4,5-d]pyrimidin-5-one] | ≤ 10 | ≤ 10 | 
8 | CC[C@@H]1CN(c2nc(=O)n(C)c3c2nnn3C[C@H]2CCCO2)[C@@H](C)CN1C(c1ccc(Cl)cc1)C1CC(F)(F)C1 (stereo partly drawn) [Example 45, 7-((2S,5R)-4-((4-Chlorophenyl)(3,3-difluorocyclobutyl)methyl)-5-ethyl-2-methylpiperazin-1-yl)-4-methyl-3-(((R)-tetrahydrofuran-2-yl)methyl)-3,4-dihydro-5H-[1,2,3]triazolo[4,5-d]pyrimidin-5-one] | ≤ 10 | ≤ 10 | 
